Converted amounts (≈) assume the structure as drawn. Marks after values point to notes of the source that are not given here.
Columns and labels:
[1] = test system: S. intermedius Animal (1051997); experiment: MIC determination, S. intermedius animal (1051997); format: cell-based; details: Staphylococcus intermedius; Gram-positive; Mueller-Hinton medium, 24 h at 37° C.
In short: (§1)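 MH broth, inoculum OD 0.01/well, 0.5 cascade dilution of test compound (stock 5 mg/mL, DMSO/MeOH 50:50). 37 °C, 24 h, humid. OD620 read → MIC. n=2.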

E. coli Animal (1956) = experiment: MIC determination, E. coli animal (1956); format: cell-based; details: Escherichia coli; Gram-negative; Mueller-Hinton medium, 24 h at 37° C.
In short: as §1

P. aeruginosa (1051575) = experiment: Potentiation of erythromycin activity (combination MIC); format: cell-based, Pseudomonas aeruginosa; details: erythromycin 2 μg/mL; concentration of compound required to restore antibiotic activity
In short: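 Broth microdilution with wells seeded at OD 0.01 (about 5×10^6 bacteria/well). The test compound was serially diluted against each antibiotic held at a final 2 μg/mL. After 24 h at 37 °C in humid air, live bacteria were stained pink with nitro tetrazolium iodide; the value is the compound concentration restoring antibiotic activity.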

C. albicans = experiment: Antifungal activity, cascade microdilution; format: cell-based; details: Candida albicans, 24 h, read-out: IC50 (μg/mL) C. albicans

Structure (SMILES) | MIC [1] | MIC (E. coli Animal (1956)) | MIC P. aeruginosa (1051575) compound + erythromycin (P. aeruginosa (1051575)) | IC50 (C. albicans)
CC(C)NC(=O)CC[C@@H](C)[C@H]1CCC2C3CCC4C[C@@H](NCCCN(C)CCCN)CC[C@]4(C)C3C[C@H](O)[C@@]21C (some centres unmarked) [(25)] | 2 µg/mL (≈ 3.57 µM) | 14 µg/mL (≈ 25 µM) | 28 µg/mL | –
CC(C)NC(=O)CC[C@@H](C)[C@H]1CCC2C3C(CC[C@@]21C)[C@@]1(C)CC[C@H](NCCCNCCCN)CC1C[C@@H]3O (stereo partly drawn) [(15), 3β-norspermidino-N-isopropylursodeoxycholamide] | 7 µg/mL (≈ 12.8 µM) | 112 µg/mL (≈ 205 µM) | 55 µg/mL | 14 µg/mL (≈ 25.6 µM)
CC(C)NC(=O)CC[C@@H](C)[C@H]1CCC2C3C(CC[C@@]21C)[C@@]1(C)CC[C@H](NCCCNCCCNCCCN)CC1C[C@H]3O (stereo partly drawn) [(7), 3β-norspermino-N-isopropylchenodeoxycholamide] | 1 µg/mL (≈ 1.66 µM) | 8 µg/mL (≈ 13.2 µM) | 15 µg/mL | –
CC(C)NC(=O)CC[C@@H](C)[C@H]1CCC2C3C(CC[C@@]21C)[C@@]1(C)CC[C@H](NCCCNCCCCNCCCN)CC1C[C@@H]3O (stereo partly drawn) [Compound (35), 3β-spermino-N-isopropylursodeoxycholamide] | 8 µg/mL (≈ 12.9 µM) | 64 µg/mL (≈ 104 µM) | 32 µg/mL | 1 µg/mL (≈ 1.62 µM)
CC(C)NC(=O)CC[C@@H](C)[C@H]1CCC2C3CCC4C[C@@H](NCCCNCCCN)CC[C@]4(C)C3C[C@H](O)[C@@]21C (stereo partly drawn) [Compound (2), 3β-norspermidino-N-isopropyldeoxycholamide] | 1 µg/mL (≈ 1.83 µM) | 14 µg/mL (≈ 25.6 µM) | 3* μg/mL | –
CC(C)NC(=O)CC[C@@H](C)[C@H]1CCC2C3C(C[C@H](O)[C@@]21C)[C@@]1(C)CC[C@H](NCCCNCCCN)CC1C[C@H]3O (stereo partly drawn) [(5), 3β-norspermidino-N-isopropylcholamide] | 4 µg/mL (≈ 7.11 µM) | 32 µg/mL (≈ 56.9 µM) | 32* μg/mL | 4 µg/mL (≈ 7.11 µM)
CC(C)NC(=O)CC[C@@H](C)[C@H]1CCC2C3C(CC[C@@]21C)[C@@]1(C)CC[C@H](NCCCNCCCN)CC1C[C@H]3O (stereo partly drawn) [(8), 3β-norspermidino-N-isopropylchenodeoxycholamide] | 1 µg/mL (≈ 1.83 µM) | 14 µg/mL (≈ 25.6 µM) | 27 µg/mL | 1 µg/mL (≈ 1.83 µM)
CC(C)NC(=O)CC[C@@H](C)[C@H]1CCC2C3C(CC[C@@]21C)[C@@]1(C)CC[C@H](NCCCN(C)CCCN)CC1C[C@H]3O (stereo partly drawn) [(27), 3β-(bis(3-aminopropyl)methylamine)-N-isopropylchenodeoxycholamide] | 4 µg/mL (≈ 7.13 µM) | 32 µg/mL (≈ 57 µM) | 28 µg/mL | 2 µg/mL (≈ 3.57 µM)

— patent US10780101B2, “Amide derivatives of squalamine for the treatment of infections” (VIRBAC, priority 2016, dated 2020)
